# Where two headings read alike, the source gives them in different places.
# How the values were obtained:
# [1] = pooled test systems of the NAM panel (all test methods)
# [2] = parameters: method as in Hardman JG 2001; conditions: known Cmax in man; ref Hardman JG 2001; cited from earlier work
# [3] = test system: U-2 OS reporter cell lines battery; experiment: CALUX reporter gene assay battery as a whole; conditions: all CALUX assays, 13 concentrations, 24 h exposure
# [4] = test system: p53-dependent pathway activation / genotoxicity; format: cell-based, human; conditions: for PoD p53: 24 h exposure, lowest effect level FI=1.5, means from 3 assay runs
# Method: (§1) After 24 h, exposure medium was prepared. […] All samples were tested in triplicates. […] Fig. SM_4. […] Fig. SM_4.
# (§2) Supplementary Material SM_4
# (§3) Overview of CALUX assays.
# (§4) This is defined as the concentration of test compound […]
# (§5) for an antagonist assay is a PC20.
# (§6) PC = positive control. FI = fold induction. PC10: concentration where test compound causes an activation equal to 10% of the maximum effect (positive control). PC20: concentration where test compound causes […]
# (§7) FI=1.5: concentration where test
# (§8) (A) exemplary graph of concentration- […]
# (§9) receptor antagonism assay with PC20 as lowest-effect-level. (C) exemplary graph for assay with 1.5 fold inductionas lowest effect level. 9
# [5] = molecular target: T1, Pregnane X receptor (Homo sapiens, UniProt O75469); experiment: PXR CALUX; format: cell-based; conditions: 24 h exposure, lowest effect level PC10, means from 3 assay runs
# T1 construct: host or cells: U-2 OS
# T1 sequence (O75469 1-434): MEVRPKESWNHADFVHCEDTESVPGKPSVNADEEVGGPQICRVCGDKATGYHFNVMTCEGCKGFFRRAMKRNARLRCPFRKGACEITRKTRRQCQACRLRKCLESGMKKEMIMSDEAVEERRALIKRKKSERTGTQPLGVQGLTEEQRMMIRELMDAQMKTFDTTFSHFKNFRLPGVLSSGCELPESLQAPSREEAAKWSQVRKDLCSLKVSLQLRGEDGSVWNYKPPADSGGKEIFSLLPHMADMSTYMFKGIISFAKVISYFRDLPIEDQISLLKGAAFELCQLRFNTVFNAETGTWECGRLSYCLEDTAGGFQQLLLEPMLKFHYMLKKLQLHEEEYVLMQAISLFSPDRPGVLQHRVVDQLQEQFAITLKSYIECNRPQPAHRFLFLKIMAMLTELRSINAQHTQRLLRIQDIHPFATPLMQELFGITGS
# Method: as §1, §2, §3, §4, §5, §6, §7, §8, §9
# [6] = human, plasma; cited from earlier work
# [7] = test system: U-2 OS cells; conditions: human
# [8] = molecular target: T2, Progesterone receptor (Homo sapiens, UniProt P06401); experiment: PR-anti CALUX; format: cell-based; conditions: 24 h exposure, lowest effect level PC20, reference agonist at EC50, means from 3 assay runs
# T2 construct: host or cells: U-2 OS
# T2 sequence (P06401 1-933): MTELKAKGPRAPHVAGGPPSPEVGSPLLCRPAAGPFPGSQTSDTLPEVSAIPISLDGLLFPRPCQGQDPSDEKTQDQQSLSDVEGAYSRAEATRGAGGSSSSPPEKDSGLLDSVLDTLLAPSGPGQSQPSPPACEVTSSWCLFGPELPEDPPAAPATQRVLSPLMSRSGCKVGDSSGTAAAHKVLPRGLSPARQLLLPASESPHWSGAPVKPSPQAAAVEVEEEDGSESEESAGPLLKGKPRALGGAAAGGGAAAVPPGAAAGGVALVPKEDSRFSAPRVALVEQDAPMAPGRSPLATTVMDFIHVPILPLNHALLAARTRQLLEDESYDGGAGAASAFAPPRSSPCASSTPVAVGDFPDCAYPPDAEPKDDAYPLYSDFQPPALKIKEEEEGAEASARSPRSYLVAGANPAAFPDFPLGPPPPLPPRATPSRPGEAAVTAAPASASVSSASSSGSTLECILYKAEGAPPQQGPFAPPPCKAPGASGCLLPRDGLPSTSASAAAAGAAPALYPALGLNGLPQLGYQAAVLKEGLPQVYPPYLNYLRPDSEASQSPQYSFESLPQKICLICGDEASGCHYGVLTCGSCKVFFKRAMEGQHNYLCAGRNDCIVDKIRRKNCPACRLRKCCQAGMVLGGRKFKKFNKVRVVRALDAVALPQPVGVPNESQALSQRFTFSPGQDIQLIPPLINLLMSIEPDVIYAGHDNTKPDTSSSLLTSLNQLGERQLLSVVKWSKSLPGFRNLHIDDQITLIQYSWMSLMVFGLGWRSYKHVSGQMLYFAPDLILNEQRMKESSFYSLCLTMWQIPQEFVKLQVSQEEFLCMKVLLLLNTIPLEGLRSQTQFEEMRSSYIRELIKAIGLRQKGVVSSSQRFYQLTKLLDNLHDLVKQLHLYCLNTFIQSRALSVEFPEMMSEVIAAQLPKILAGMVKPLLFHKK
# Method: as §1, §2, §3, §4, §5, §6, §7, §8, §9
# [9] = molecular target: T3, Androgen receptor (Homo sapiens, UniProt P10275); format: cell-based; conditions: 24 h exposure, lowest effect level PC20, reference agonist at EC50, means from 3 assay runs
# T3 construct: host or cells: U-2 OS
# T3 sequence (P10275 1-920): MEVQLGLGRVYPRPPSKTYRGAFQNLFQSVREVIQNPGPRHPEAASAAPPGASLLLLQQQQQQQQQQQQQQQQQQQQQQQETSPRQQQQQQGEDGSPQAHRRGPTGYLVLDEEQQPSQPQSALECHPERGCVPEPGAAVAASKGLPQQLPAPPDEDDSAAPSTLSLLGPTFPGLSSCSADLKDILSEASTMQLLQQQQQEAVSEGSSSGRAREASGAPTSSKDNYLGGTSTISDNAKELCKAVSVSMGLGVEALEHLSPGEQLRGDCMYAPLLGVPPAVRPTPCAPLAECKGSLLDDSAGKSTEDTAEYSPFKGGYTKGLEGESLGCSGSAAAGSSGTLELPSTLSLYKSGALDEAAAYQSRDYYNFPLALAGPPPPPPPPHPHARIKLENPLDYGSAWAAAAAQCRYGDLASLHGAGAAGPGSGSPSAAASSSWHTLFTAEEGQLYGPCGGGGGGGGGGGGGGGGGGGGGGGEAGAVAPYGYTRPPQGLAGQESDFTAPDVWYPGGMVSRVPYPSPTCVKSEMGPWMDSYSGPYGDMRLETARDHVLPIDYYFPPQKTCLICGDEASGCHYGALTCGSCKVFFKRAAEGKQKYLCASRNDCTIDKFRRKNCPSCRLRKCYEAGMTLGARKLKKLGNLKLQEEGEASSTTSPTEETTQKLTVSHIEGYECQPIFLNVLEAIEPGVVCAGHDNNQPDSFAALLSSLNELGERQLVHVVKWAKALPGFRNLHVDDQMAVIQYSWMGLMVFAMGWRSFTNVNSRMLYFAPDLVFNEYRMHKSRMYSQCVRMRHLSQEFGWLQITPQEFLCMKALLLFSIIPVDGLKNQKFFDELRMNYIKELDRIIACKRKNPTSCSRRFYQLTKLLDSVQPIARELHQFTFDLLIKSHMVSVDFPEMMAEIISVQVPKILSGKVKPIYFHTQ
# Method: as §1, §2, §3, §4, §5, §6, §7, §8, §9
# [10] = test system: Transcription of p21 inhibitor of cell cycle progression; experiment: p21 CALUX; format: cell-based, human; conditions: 24 h exposure, lowest effect level PC10, means from 3 assay runs
# Method: as §1, §2, §3, §4, §5, §6, §7, §8, §9
# [11] = molecular target: T4, Thyroid hormone receptor beta (Homo sapiens, UniProt P10828); experiment: TRb-anti CALUX; format: cell-based; conditions: 24 h exposure, lowest effect level PC20, reference agonist at EC50, means from 3 assay runs
# T4 construct: host or cells: U-2 OS
# T4 sequence (P10828 1-461): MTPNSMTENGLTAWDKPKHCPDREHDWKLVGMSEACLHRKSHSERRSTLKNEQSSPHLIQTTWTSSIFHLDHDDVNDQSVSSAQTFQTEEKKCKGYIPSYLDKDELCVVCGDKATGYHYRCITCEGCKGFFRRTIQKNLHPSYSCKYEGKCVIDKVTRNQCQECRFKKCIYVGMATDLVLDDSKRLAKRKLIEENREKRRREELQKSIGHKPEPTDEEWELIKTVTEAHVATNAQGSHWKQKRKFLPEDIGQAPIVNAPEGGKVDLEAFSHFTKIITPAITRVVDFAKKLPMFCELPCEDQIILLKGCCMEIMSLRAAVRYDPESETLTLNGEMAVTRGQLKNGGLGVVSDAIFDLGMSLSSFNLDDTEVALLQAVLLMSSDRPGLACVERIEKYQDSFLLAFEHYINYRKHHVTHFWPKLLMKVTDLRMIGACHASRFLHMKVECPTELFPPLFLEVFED
# Method: as §1
# Cell line Endpoint effect Reference compound […]
# Cytotox CALUX Cytoxicity PC20 tributyltinacetate
# as §2, §3, §4, §5, §6, §7, §8, §9
# [12] = test system: U-2 OS cells; experiment: Cytotox CALUX; conditions: 24 h exposure, lowest effect level PC20, means from 3 assay runs
smiles,measurement,setting,value
CCCCNC(=O)NS(=O)(=O)c1ccc(C)cc1 [Tolbutamide],viability,[1],100%
same,Cmax,[2],196 µM
CCOC(=O)C(C)(C)Oc1ccc(Cl)cc1 [Clofibrate],response profile over the CALUX battery (in words),[3],no effect
same,viability,[1],100%
CNC(=O)Oc1cccc2ccccc12 [Carbaryl],PoD p53,[4],3.8 -log(M)
same,PoD PXR - ago,[5],4.0 -log(M)
CC(=O)Nc1ccc(O)cc1 [Paracetamol],response profile over the CALUX battery (in words),[3],no effect
same,protein binding,[6],15%
CC(=O)O[C@H]1C(=O)[C@@]2(C)[C@H]([C@H](OC(=O)c3ccccc3)[C@]3(O)C[C@H](OC(=O)[C@H](O)[C@@H](NC(=O)c4ccccc4)c4ccccc4)C(C)=C1C3(C)C)[C@]1(OC(C)=O)CO[C@@H]1C[C@@H]2O [Taxol],PoD cytotoxicity,[7],5.6
same,cytotoxic concentration,[7],about 2.5 µM
same,PoD PR - anta,[8],7.4 -log(M)
same,concentration activating expression of p53,[4],< 10 nM
same,PoD p53,[4],8.2 -log(M)
same,PoD AR - anta,[9],7.3 -log(M)
same,PoD p21,[10],8.0 -log(M)
same,PoD TRβ - anta,[11],7.4 -log(M)
Oc1c(Cl)cc(Cl)c(Cl)c1Cc1c(O)c(Cl)cc(Cl)c1Cl [Hexachlorophene],response profile over the CALUX battery (in words),[3],only activated nuclear hormone receptor related assays
same,PoD cytotoxicity,[12],5.5 -log(M)
same,PoD AR - anta,[9],5.7 -log(M)
same,PoD TRβ - anta,[11],6.0 -log(M)

# Reference: paper PMC7367925, “The EU-ToxRisk method documentation, data processing and chemical testing pipeline for the regulatory use of new approach methods” (Archives of Toxicology, 2020)
